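Method: 48-hour compound exposure of cells in 96-well plates, five concentrations, linear interpolation of endpoints. GI50 is the concentration that inhibits growth by half.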 The source made the active and inactive calls. No stated cut-off is given here; in the data, active = GI50 up to about 1.1 µM and inactive = higher.
What was measured:
Test in all cases: DTP human tumour cell line panel, 48 h
[1] = test system: MDA-MB-435
[2] = test system: SK-MEL-28
[3] = test system: Malme-3M
[4] = test system: SF-268
[5] = test system: SNB-19
[6] = test system: RXF 393
[7] = test system: MOLT-4
[8] = test system: TK-10
[9] = test system: KM12
[10] = test system: MDA-N
[11] = test system: NCI-H23
[12] = test system: NCI/ADR-RES
[13] = test system: 786-0
[14] = test system: OVCAR-3
[15] = test system: A498
[16] = test system: IGROV-1
[17] = test system: T47D
[18] = test system: COLO 205
[19] = test system: HOP-92
[20] = test system: UO-31
[21] = test system: LOX IMVI
[22] = test system: HL-60
[23] = test system: OVCAR-5
[24] = test system: U-251
[25] = test system: NCI-H522
[26] = test system: SF-539
[27] = test system: SF-295
[28] = test system: OVCAR-4
[29] = test system: SK-MEL-2
[30] = test system: M14
[31] = test system: CAKI-1
[32] = test system: HOP-62
[33] = test system: A549
[34] = test system: SNB-75
[35] = test system: PC-3
[36] = test system: EKVX
[37] = test system: HCT-15
[38] = test system: K562
[39] = test system: NCI-H460
[40] = test system: DU-145
[41] = test system: HT-29
[42] = test system: NCI-H226
[43] = test system: UACC-257
[44] = test system: RPMI-8226
[45] = test system: HCT-116
[46] = test system: SW-620
[47] = test system: SK-OV-3
[48] = test system: OVCAR-8
[49] = test system: ACHN
[50] = test system: MDA-MB-231
[51] = test system: BT-549
[52] = test system: SR
[53] = test system: SK-MEL-5
[54] = test system: SN12C
[55] = test system: CCRF-CEM
[56] = test system: Hs-578T

Which results are given for `CN1C2CCC1CC(CC(=O)NC(c1ccc(F)cc1)c1ccc(F)cc1)C2` (stereo unspecified)?
GI50 [1]: 35.6 µM (inactive); GI50 [2]: 22.5 µM (inactive); GI50 [3]: 27.5 µM (inactive); GI50 [4]: 98.4 µM (inactive); GI50 [5]: > 100 µM (inactive); GI50 [6]: > 100 µM (inactive); GI50 [7]: 81.1 µM (inactive); GI50 [8]: > 100 µM (inactive); GI50 [9]: > 100 µM (inactive); GI50 [10]: 41.9 µM (inactive); GI50 [11]: > 100 µM (inactive); GI50 [12]: > 100 µM (inactive); GI50 [13]: 64.7 µM (inactive); GI50 [14]: > 100 µM (inactive); GI50 [15]: > 100 µM (inactive); GI50 [16]: > 100 µM (inactive); GI50 [17]: > 100 µM (inactive); GI50 [18]: 21.5 µM (inactive); GI50 [19]: 60 µM (inactive); GI50 [20]: 56.1 µM (inactive); GI50 [21]: 80 µM (inactive); GI50 [22]: 0.242 µM (active); GI50 [23]: > 100 µM (inactive); GI50 [24]: > 100 µM (inactive); GI50 [25]: > 100 µM (inactive); GI50 [26]: 70 µM (inactive); GI50 [27]: > 100 µM (inactive); GI50 [28]: > 100 µM (inactive); GI50 [29]: 22.5 µM (inactive); GI50 [30]: 18 µM (inactive); GI50 [31]: > 100 µM (inactive); GI50 [32]: > 100 µM (inactive); GI50 [33]: > 100 µM (inactive); GI50 [34]: > 100 µM (inactive); GI50 [35]: > 100 µM (inactive); GI50 [36]: > 100 µM (inactive); GI50 [37]: > 100 µM; GI50 [38]: 37.7 µM (inactive); GI50 [39]: > 100 µM (inactive); GI50 [40]: > 100 µM (inactive); GI50 [41]: 38.6 µM (inactive); GI50 [42]: > 100 µM (inactive); GI50 [43]: 20 µM (inactive); GI50 [44]: 47 µM (inactive); GI50 [45]: 59.7 µM (inactive); GI50 [46]: > 100 µM (inactive); GI50 [47]: > 100 µM (inactive); GI50 [48]: > 100 µM (inactive); GI50 [49]: > 100 µM (inactive); GI50 [50]: > 100 µM (inactive); GI50 [51]: > 100 µM (inactive); GI50 [52]: 30.2 µM (inactive); GI50 [53]: 20.8 µM (inactive); GI50 [54]: > 100 µM (inactive); GI50 [55]: 2.2 µM (inactive); GI50 [56]: > 100 µM (inactive)
